# Results: patent publication US11667649B2, “Heteroaromatic macrocyclic ether chemotherapeutic agents” (Nuvalent, Inc., priority 2020, dated 2023)
# Test system: TPM3-NTRK1-wt IC50 / primary target (e.g. CD74-ROS1-wt) IC50, Ba/F3 cells
# Experiment: Cell assay TRKA selectivity (TRKA potency divided by primary target potency)
# Format: cell-based
# Conditions: for TPM3-NTRK1-wt/CD74-ROS1-G2032R: TRKA selectivity ratio: TPM3-NTRK1-wt IC50 / CD74-ROS1-G2032R IC50, Ba/F3 cells; for TPM3-NTRK1-wt/CD74-ROS1-wt: TRKA selectivity ratio: TPM3-NTRK1-wt IC50 / CD74-ROS1-wt IC50, Ba/F3 cells; for TPM3-NTRK1-wt/EML4-ALK-L1196M-G1202R: TRKA selectivity ratio: TPM3-NTRK1-wt IC50 / EML4-ALK-L1196M-G1202R IC50, Ba/F3 cells; for TPM3-NTRK1-wt/EML4-ALK-wt: TRKA selectivity ratio: TPM3-NTRK1-wt IC50 / EML4-ALK-wt IC50, Ba/F3 cells
# Outline: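 Ratio of TRKA to primary-target cellular IC50 (e.g. TPM3-NTRK1-wt/CD74-ROS1-wt), grouped into bins A >30, B >10, C ≥1, D <1. Each IC50 came from engineered Ba/F3 fusion lines grown without IL-3, dosed for 72 h and read as CellTiter-Glo luminescence, with a four-parameter logistic fit.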
Compound,TPM3-NTRK1-wt/CD74-ROS1-G2032R,TPM3-NTRK1-wt/CD74-ROS1-wt,TPM3-NTRK1-wt/EML4-ALK-L1196M-G1202R,TPM3-NTRK1-wt/EML4-ALK-wt
"Cc1nc2c(s1)Cn1ncc(C(F)F)c1-c1cnc(N)c(c1)O[C@H](C)c1cc(F)ccc1-2 [Example 68, (19R)-3-(difluoromethyl)-16-fluoro-10,19-dimethyl-20-oxa-9-thia-5,6,11,23-tetraazapentacyclo[19.3.1.0^2,^6.0^8,^12.0^13,^18]pentacosa-1(24),2,4,8(12),10,13,15,17,21(25),22-decaen-22-amine]","B (bin B for high selectivity, ratio>10-fold)","A (bin A for very high selectivity, ratio>30-fold)","C (bin C for moderate selectivity, ratio≥1)","B (bin B for high selectivity, ratio>10-fold)"
"Cc1nn(CC2CC2)c2c1Cc1cn(C)nc1-c1ccc(F)cc1[C@@H](C)Oc1cc-2cnc1N [Example 53, (19R)-3-(cyclopropylmethyl)-16-fluoro-5,10,19-trimethyl-20-oxa-3,4,10,11,23-pentaazapentacyclo[19.3.1.0^2,^6.0^8,^12.0^13,^18]pentacosa-1(24),2(6),4,8,11,13,15,17,21(25),22-decaen-22-amine]","A (bin A for very high selectivity, ratio>30-fold)","A (bin A for very high selectivity, ratio>30-fold)","A (bin A for very high selectivity, ratio>30-fold)","A (bin A for very high selectivity, ratio>30-fold)"
"CCn1ncc2c1-c1cnc(N)c(c1)O[C@H](C)c1cc(F)ccc1-c1nocc1C2 [Example 99, (19R)-3-ethyl-16-fluoro-19-methyl-10,20-dioxa-3,4,11,23-tetraazapentacyclo[19.3.1.0^2,^6.0^8,^12.0^13,^18]pentacosa-1(24),2(6),4,8,11,13,15,17,21(25),22-decaen-22-amine]","A (bin A for very high selectivity, ratio>30-fold)","A (bin A for very high selectivity, ratio>30-fold)","C (bin C for moderate selectivity, ratio≥1)","B (bin B for high selectivity, ratio>10-fold)"
"CCn1ncc2c1-c1cnc(N)c(c1)O[C@H](C)c1cc(F)ccc1-n1nc(C(F)(F)F)cc1C2 [Example 52, (19R)-3-ethyl-16-fluoro-19-methyl-10-(trifluoromethyl)-20-oxa-3,4,11,12,23-pentaazapentacyclo[19.3.1.0^2,^6.0^8,^12.0^13,^18]pentacosa-1(24),2(6),4,8,10,13,15,17,21(25),22-decaen-22-amine]","A (bin A for very high selectivity, ratio>30-fold)","A (bin A for very high selectivity, ratio>30-fold)","C (bin C for moderate selectivity, ratio≥1)","B (bin B for high selectivity, ratio>10-fold)"
"C[C@H]1Oc2cc(cnc2N)-c2c(C#N)nn(C)c2Cc2cccnc2-c2ccc(F)cc21 [Example 100, (20R)-23-amino-17-fluoro-5,20-dimethyl-21-oxa-4,5,12,24-tetraazapentacyclo[20.3.1.0^2,^6.0^8,^13.0^14,^19]hexacosa-1(25),2(6),3,8(13),9,11,14,16,18,22(26),23-undecaene-3-carbonitrile]","A (bin A for very high selectivity, ratio>30-fold)","A (bin A for very high selectivity, ratio>30-fold)","A (bin A for very high selectivity, ratio>30-fold)","A (bin A for very high selectivity, ratio>30-fold)"
"Cc1cc2n(n1)-c1ccc(F)cc1[C@@H](C)Oc1cc(cnc1N)-c1c(cnn1CC1CC1)C2 [Example 109, (19R)-3-(cyclopropylmethyl)-16-fluoro-10,19-dimethyl-20-oxa-3,4,11,12,23-pentaazapentacyclo[19.3.1.0^2,^6.0^8,^12.0^13,^18]pentacosa-1(24),2(6),4,8,10,13,15,17,21(25),22-decaen-22-amine]","A (bin A for very high selectivity, ratio>30-fold)","A (bin A for very high selectivity, ratio>30-fold)","A (bin A for very high selectivity, ratio>30-fold)","A (bin A for very high selectivity, ratio>30-fold)"
"C[C@H]1Oc2cc(cnc2N)-c2c(cnn2CC(F)F)Cc2cn(C)nc2-c2ccc(F)cc21 [Example 22, (19R)-3-(2,2-difluoroethyl)-16-fluoro-10,19-dimethyl-20-oxa-3,4,10,11,23-pentaazapentacyclo[19.3.1.0^2,^6.0^8,^12.0^13,^18]pentacosa-1(24),2(6),4,8,11,13,15,17,21(25),22-decaen-22-amine]","A (bin A for very high selectivity, ratio>30-fold)","A (bin A for very high selectivity, ratio>30-fold)","A (bin A for very high selectivity, ratio>30-fold)","A (bin A for very high selectivity, ratio>30-fold)"
"C[C@H]1Oc2cc(cnc2N)-c2c(C#N)nnn2Cc2cn(C)nc2-c2ccc(F)cc21 [Example 24, (19R)-22-amino-16-fluoro-10,19-dimethyl-20-oxa-4,5,6,10,11,23-hexaazapentacyclo[19.3.1.0^2,^6.0^8,^12.0^13,^18]pentacosa-1(24),2,4,8,11,13,15,17,21(25),22-decaene-3-carbonitrile]","A (bin A for very high selectivity, ratio>30-fold)","A (bin A for very high selectivity, ratio>30-fold)","C (bin C for moderate selectivity, ratio≥1)","A (bin A for very high selectivity, ratio>30-fold)"
"C[C@H]1Oc2cc(cnc2N)-c2c(CC(F)F)noc2Cc2cn(C)nc2-c2ccc(F)cc21 [Example 85, (19R)-3-(2,2-difluoroethyl)-16-fluoro-10,19-dimethyl-5,20-dioxa-4,10,11,23-tetraazapentacyclo[19.3.1.0^2,^6.0^8,^12.0^13,^18]pentacosa-1(24),2(6),3,8,11,13,15,17,21(25),22-decaen-22-amine]","A (bin A for very high selectivity, ratio>30-fold)","A (bin A for very high selectivity, ratio>30-fold)","C (bin C for moderate selectivity, ratio≥1)","A (bin A for very high selectivity, ratio>30-fold)"
"CCn1ncc2c1-c1cnc(N)c(c1)O[C@H](C)c1cc(F)ccc1-n1nncc1C2 [Example 43, (19R)-3-ethyl-16-fluoro-19-methyl-20-oxa-3,4,10,11,12,23-hexaazapentacyclo[19.3.1.0^2,^6.0^8,^12.0^13,^18]pentacosa-1(24),2(6),4,8,10,13,15,17,21(25),22-decaen-22-amine]","A (bin A for very high selectivity, ratio>30-fold)","A (bin A for very high selectivity, ratio>30-fold)","C (bin C for moderate selectivity, ratio≥1)","B (bin B for high selectivity, ratio>10-fold)"
